Reference: ChEMBL document CHEMBL5360614, “Quinoline Thiourea-Based Zinc Ionophores with Antibacterial Activity” (J Med Chem, 2023)
In brackets after ≈: the same amount, converted by molar mass. Non-standard residues stand in square brackets, D forms with d. Residues, ends and D or L forms follow the SMILES beside them. ξ: configuration not given here. Orn = NCCC[C@H](N)C(=O)O; ξP = O=C(O)C1CCCN1

Assays:
Format in all cases: functional
Staphylococcus aureus [1] = assay: Antibacterial activity against gentamicin-and methicillin-resistant Staphylococcus aureus ATCC 33592 assessed as reduction in bacterial growth incubated for 14 to 16 hrs by microbroth dilution method; conditions: time 14-16 hrs
Staphylococcus aureus [2] = assay: (§1) Antibacterial activity against gentamicin-and methicillin-resistant Staphylococcus aureus ATCC 33592 assessed as reduction in bacterial growth incubated for 14 to 16 hrs in presence of 200 uM ZnCl2 by microbroth dilution method; conditions: time 14-16 hrs
Staphylococcus aureus [3] = assay: as §1, with “1” for “200”, “1-(2-(1H-benzo[d]imidazol-1-yl)quinolin-8-yl)-3-(3,5-bis(trifluoromethyl)phenyl)thiourea” for “ZnCl2”; conditions: time 14-16 hrs
Staphylococcus aureus [4] = assay: as §1, with “1 uM 1-(2-(1H-benzo[d]imidazol-1-yl)quinolin-8-yl)-3-(3,5-bis(trifluoromethyl)phenyl)thiourea and 100” for “200”; conditions: time 14-16 hrs
Staphylococcus aureus [5] = assay: as §1, with “of 1 uM 1-(2-(1H-benzo[d]imidazol-1-yl)quinolin-8-yl)-3-(3,5-bis(trifluoromethyl)phenyl)thiourea and” for “of”; conditions: time 14-16 hrs
Staphylococcus aureus [6] = assay: Potency index, ratio of compound MIC to compound MIC in presence of 1 uM 1-(2-(1H-benzo[d]imidazol-1-yl)quinolin-8-yl)-3-(3,5-bis(trifluoromethyl)phenyl)thiourea and 200 uM ZnCl2 for antibacterial activity against gentamicin-and methicillin-resistant Staphylococcus aureus ATCC 33592
Staphylococcus aureus [7] = assay: Antibacterial activity against Staphylococcus aureus MTCC-96 assessed as reduction in bacterial growth incubated for 14 to 16 hrs by microbroth dilution method; conditions: time 14-16 hrs
Escherichia coli = assay: Antibacterial activity against Escherichia coli MTCC 1687 assessed as reduction in bacterial growth incubated for 14 to 16 hrs by microbroth dilution method; conditions: time 14-16 hrs

Row | Compound | MIC (Staphylococcus aureus [1]) [µM] | MIC (Staphylococcus aureus [2]) [µM] | MIC (Staphylococcus aureus [3]) [µM] | MIC (Staphylococcus aureus [4]) [µM] | MIC (Staphylococcus aureus [5]) [µM] | Ratio (Staphylococcus aureus [6]) | MIC (Staphylococcus aureus [7]) [µM] | MIC (Escherichia coli) [µM]
1 | CC(C)(O/N=C(\C(=O)N[C@@H]1C(=O)N2C(C(=O)[O-])=C(C[n+]3ccccc3)CS[C@H]12)c1csc(N)n1)C(=O)O [CEFTAZIDIME] | 229 (≈ 125 µg/mL) | 229 | 229 | 5.7 | 0.15 | 1524 |  | 
2 | COc1ccc(NC(=S)Nc2cccc3cccnc23)cc1 | > 50 |  |  |  |  |  | > 25 | > 50
3 | O=C(Nc1cc(C(F)(F)F)cc(C(F)(F)F)c1)Nc1cccc2cccnc12 | > 50 |  |  |  |  |  | > 50 | > 50
4 | FC(F)(F)c1ccc(NC(=S)Nc2cccc3cccnc23)cc1 | 6.25 (≈ 2.17 µg/mL) |  |  |  |  |  | 6.25 (≈ 2.17 µg/mL) | > 50
5 | CC(C)C[C@@H]1NC(=O)[C@H](CCCN)NC(=O)[C@H](C(C)C)NC(=O)[C@@H]2CCCN2C(=O)[C@@H](Cc2ccccc2)NC(=O)[C@H](CC(C)C)NC(=O)[C@H](CCCN)NC(=O)[C@H](C(C)C)NC(=O)C2CCCN2C(=O)[C@@H](Cc2ccccc2)NC1=O (stereo partly specified) (cyclo(L[dF]PV[Orn]L[dF][ξP]V[Orn])) | 6.5 (≈ 7.42 µg/mL) |  |  |  |  |  | 3.12 (≈ 3.56 µg/mL) | 4.51 (≈ 5.15 µg/mL)
6 | [Cl-].[Cl-].[Zn+2] [ZINC CHLORIDE] | 1560 |  |  |  |  |  | 1560 | 2000
7 | CUPRIC CHLORIDE |  |  |  |  |  |  | 1870 | 
8 | FC(F)(F)c1cc(NC(=S)Nc2cccc3ccc(-n4ccnc4)nc23)cc(C(F)(F)F)c1 | 12.5 (≈ 6.02 µg/mL) |  |  |  |  |  | 12.5 (≈ 6.02 µg/mL) | > 50
9 | CN(C)[C@@H]1C(O)=C(C(N)=O)C(=O)[C@@]2(O)C(O)=C3C(=O)c4c(O)cccc4[C@@](C)(O)[C@H]3C[C@@H]12 [TETRACYCLINE] | 168 (≈ 74.7 µg/mL) | 168 | 168 | 0.87 | 0.18 | 933 |  | 
